Test results as given in patent publication US20150218212A1, “FLUORINATED EPOXYKETONE-BASED TETRAPEPTIDE COMPOUNDS AND USES THEREOF AS PROTEASOME INHIBITORS” (FLUORINOV PHARMA INC., priority 2012, published 2015).
Like-named read-outs stand apart in the source and are kept apart here.

Key:
[1] = molecular target: T1, proteasome Chymotrypsin-like (CT-L) activity (Mus musculus, UniProt O09061+O55234); experiment: Pharmacodynamic proteasome activity in murine red blood cells, CT-L; type: in vivo, NOD/SCID mice; details: iv, mice, 2 mg/kg i.v.
T1 construct: RBCs were lysed with assay lysis buffer and incubated on ice for 30 minutes; from tissue; host or cells: red blood cells of NOD/SCID mice
Method: Cells were harvested by centrifugation at 1,200 rpm at room temperature. Cell pellets were washed with PBS (phosphate buffered saline) and lysed with assay lysis buffer (50 mM HEPES (N-2-hydroxyethylpiperazine-N′-2-ethanesulfonic acid), pH 7.5; 150 mM NaCl; 1% Triton X-100; 2 mM ATP). Cell lysates were incubated on ice for 30 minutes, mixed by vortex every 5 minutes, and then centrifuged at 12,000 g for 10 minutes. The supernatant was transferred to a 96-well plate. For each assay, 10 μg of total protein were incubated for 1 hour at 37° C. with increasing concentrations (1 nM to 10 μM) of test compound diluted in assay buffer (50 mM tris-HCl (tris(hydroxymethyl)aminomethane-HCl), pH 7.5; 150 mM NaCl). DMSO alone was used as a control in every assay plate. After incubation, a specific fluorogenic proteasome substrate was added to each assay reaction at a final concentration of 40 μM in a total volume of 100 μL. N-Succinyl-Leu-Leu-Val-Tyr-7-amino-4-methylcoumarin (Suc-Leu-Leu-Val-Tyr-AMC) was used for measuring chymotrypsin-like (CT-L) activity, t-butoxycarbonyl-Leu-Arg-Arg-7-amino-4-methylcoumarin (Boc-Leu-Arg-Arg-AMC) for trypsin-like (T-L) activity, and benzyloxycarbonyl-L-leucyl-L-leucyl-L-glutamyl-7-amino-4-methylcoumarin (Z-Leu-Leu-Glu-AMC) for caspase-like (C-L) activity. The excitation wavelength was set at 360 nm and the fluorescence emission wavelength of AMC was detected at 460 nm. The fluorescence of free AMC released during the enzymatic reaction was measured with a SpectraMax M5 fluorescent spectrophotometric plate reader (Molecular Devices, Sunnyvale, Calif.). AMC release rate was measured at 37° C. in a kinetic mode, recording every 5 minutes for 30 minutes. Experiments were performed in triplicate and repeated at least twice.
All mouse experiments were performed in accordance with approval from the Ontario Cancer Institute institutional animal review board. Five- to six-week-old male non-obese diabetic/severe combined immunodeficient (NOD/SCID) mice were grouped randomly (n=3 mice per group). Mice were administered vehicle (5% DMSO, 20% Cremophor) or compounds of Formula I at different doses either intravenously or by oral gavage, and venous blood samples (20-50 μL) were collected from each mouse over 24 hours. Blood samples were mixed with heparin (APP Pharmaceuticals; Schaumburg, Ill.) in 0.5 mL tubes in accordance with the manufacturer's instructions. After centrifugal separation at 3,000 g for 10 minutes, red blood cells (RBCs) in the bottom layer were transferred into a new tube and stored at −70° C. until use. RBCs were lysed with assay lysis buffer and incubated on ice for 30 minutes, mixing by vortex every 5 minutes, and then centrifuged at 12,000 g for 10 minutes. The supernatant was transferred to a 96-well plate and proteasome activity was measured as described above for tumor cell lysates.
Proteasome subunit activity (Chymotrypsin-like, Trypsin-like, Caspase-like, CT-L, T-L, C-L, respectively) were monitored over the course of 24 hrs following […] administration of representative compounds of Formula I. NOD/SCID mice were treated with compounds of Formula I (2 mg/kg by iv administration) or vehicle control and carfilzomib for up to 24 hours, as described above. Table 9 summarizes the data on pharmacodynamic activity of representative compounds of Formula I following a dose of 2 mg/kg intravenous (i.v) administration to mice. Data are presented as mean residual activity (SEM) relative to vehicle treated controls.

SF-539 = experiment: NCI screening panel, SF-539 (CNS Cancer); type: cell-based, human
Method: Representative compounds of Formula I were screened using the National Cancer Institute (NCI) screening panel, which consists of a panel of human tumor cell lines, representing leukemia, melanoma, and cancers of the lung, colon, ovary, breast, prostate and renal system.
After 24 h, two plates of each cell line are fixed in situ with TCA, to represent a measurement of the cell population for each cell line at the time of drug addition (Tz). Experimental drugs are solubilised in dimethyl sulfoxide at 400-fold the desired final maximum test concentration and stored frozen prior to use. At the time of drug addition, an aliquot of frozen concentrate is thawed and diluted to twice the desired final maximum test concentration with complete medium containing 50 μg/mL gentamicin. Additional four, 10-fold or ½ log serial dilutions are made to provide a total of five drug concentrations plus control. Aliquots of 100 μl of these different drug dilutions are added to the appropriate microtiter wells already containing 100 μl of medium, resulting in the required final drug concentrations.
Following drug addition, the plates are incubated for an additional 48 h at 37° C., 5% CO2, 95% air, and 100% relative humidity. For adherent cells, the assay is terminated by the addition of cold TCA (trichloroacetic acid). Cells are fixed in situ by the gentle addition of 50 μl of cold 50% (w/v) TCA (final concentration, 10% TCA) and incubated for 60 minutes at 4° C. The supernatant is discarded, and the plates are washed five times with tap water and air dried. Sulforhodamine B (SRB) solution (100 μl) at 0.4% (w/v) in 1% acetic acid is added to each well, and plates are incubated for 10 minutes at room temperature. After staining, unbound dye is removed by washing five times with 1% acetic acid and the plates are air dried. Bound stain is subsequently solubilised with 10 mM trizma base, and the absorbance is read on an automated plate reader at a wavelength of 515 nm. For suspension cells, the methodology is the same except that the assay is terminated by fixing settled cells at the bottom of the wells by gently adding 50 μl of 80% TCA (final concentration, 16% TCA). Using the seven absorbance measurements [time zero, (Tz), control growth, (C), and test growth in the presence of drug at the five concentration levels (Ti)], the percentage growth is calculated at each of the drug concentrations levels. Percentage growth inhibition is calculated as: [(Ti−Tz)/(C−Tz)]×100 for concentrations for which Ti>/=Tz and [(Ti−Tz)/Tz]×100 for concentrations for which Ti<Tz.
Three dose response parameters are calculated for each experimental agent. Growth inhibition of 50% (GI50) is calculated from [(Ti−Tz)/(C−Tz)]×100=50, which is the drug concentration resulting in a 50% reduction in the net protein increase (as measured by SRB staining) in control cells during the drug incubation. The drug concentration resulting in total growth inhibition (TGI) is calculated from Ti=Tz. The LC50 (concentration of drug resulting in a 50% reduction in the measured protein at the end of the drug treatment as compared to that at the beginning) indicating a net loss of cells following treatment is calculated from [(Ti−Tz)/Tz]×100=−50. Values are calculated for each of these three parameters if the level of activity is reached. However, if the effect is not reached or is exceeded, the value for that parameter is expressed as greater or less than the maximum or minimum concentration tested.

[2] = 30 min, read-out: Chymotrypsin-like (CT-L) mean residual activity relative to vehicle treated controls
[3] = 24 hrs, read-out: Chymotrypsin-like (CT-L) mean residual activity relative to vehicle treated controls
[4] = time 0, read-out: Chymotrypsin-like (CT-L) mean residual activity relative to vehicle treated controls

Compound | remaining activity at 2 mg/kg [1, 2] [%] | remaining activity at 2 mg/kg [1, 3] [%] | remaining activity at 2 mg/kg [1, 4] [%] | Log10GI50 (SF-539) | Log10LC50 (SF-539) | Log10TGI50 (SF-539)
CC(C)C[C@H](NC(=O)[C@H](COC(F)F)NC(=O)CN1CCOCC1)C(=O)N[C@@H](COC(F)F)C(=O)N[C@@H](CC(C)C)C(=O)[C@@]1(C)CO1 [Example 1, (2S)—N-[(1S)-1-(difluoromethoxymethyl)-2-[[(1S)-3-methyl-1-[(2R)-2-methyloxirane-2-carbonyl]butyl]amino]-2-oxo-ethyl]-2-[[(2S)-3-(difluoromethoxy)-2-[(2-morpholinoacetyl)amino]propanoyl]amino]-4-methyl-pentanamide] | 20 | 21 | 100 | −7.78 | −6.62 | −7.35
CC(C)C[C@H](NC(=O)[C@H](COC(F)F)NC(=O)CN1CCOCC1)C(=O)N[C@@H](Cc1ccccc1)C(=O)N[C@@H](CC(C)C)C(=O)[C@@]1(C)CO1 [Example 2, (2S)-N-[(1S)-1-benzyl-2-[[(1S)-3-methyl-1-[(2R)-2-methyloxirane-2-carbonyl]butyl]-amino]-2-oxo-ethyl]-2-[[(2S)-3-(difluoromethoxy)-2-[(2-morpholinoacetyl)amino]propanoyl]amino]-4-methyl-pentanamide] | 29 | 24 | 100 | −7.87 | −7.06 | −7.46
CC(C)C[C@H](NC(=O)[C@H](COC(F)F)NC(=O)CN1CCOCC1)C(=O)N[C@@H](Cc1ccccc1)C(=O)N[C@@H](Cc1ccccc1)C(=O)[C@@]1(C)CO1 [Example 3, (2S)-N-[(1S)-1-benzyl-2-[[(1S)-1-benzyl-2-[(2R)-2-methyloxiran-2-yl]-2-oxo-ethyl]amino]-2-oxo-ethyl]-2-[[(2S)-3-(difluoromethoxy)-2-[(2-morpholinoacetyl)-amino]propanoyl]amino]-4-methyl-pentan-amide] | 29 | 31 | 100 | <−8.00 | −4.07 | −7.42
CC(C)C[C@H](NC(=O)[C@H](COC(F)F)NC(=O)CN1CCOCC1)C(=O)N[C@@H](COC(F)F)C(=O)N[C@@H](Cc1ccccc1)C(=O)[C@@]1(C)CO1 [Example 4, (2S)-N-[(1S)-2-[[(1S)-1-benzyl-2-[(2R)-2-methyloxiran-2-yl]-2-oxo-ethyl]amino]-1-(difluoromethoxymethyl)-2-oxo-ethyl]-2-[[(2S)-3-(difluoromethoxy)-2-[(2-mor-pholinoacetyl)amino]propanoyl]amino]-4 methyl-pentanamide] | 34 | 37 | 100 | −7.64 | −5.26 | −7.22
CC(C)C[C@H](NC(=O)[C@H](COC(F)F)NC(=O)[C@H](COC(F)F)NC(=O)[C@H](CCc1ccccc1)NC(=O)CN1CCOCC1)C(=O)[C@@]1(C)CO1 [Example 7, (2S)-N-[(1S)-1-(difluoromethoxymethyl)-2-[[(1S)-1-(difluoromethoxymethyl)-2-[[(1S)-3-methyl-1-[(2R)-2-methyloxirane-2-carbo-nyl]butyl]amino]-2-oxo-ethyl]amino]-2-oxo-ethyl]-2-[(2-morpholinoacetyl)amino]-4-phenyl-butanamide] | 35 | 30 | 100 | −7.74 | −4.26 | −7.20
CC(C)C[C@H](NC(=O)[C@H](Cc1ccccc1)NC(=O)[C@H](COC(F)F)NC(=O)[C@H](COC(F)F)NC(=O)CN1CCOCC1)C(=O)[C@@]1(C)CO1 [Example 11, (2S)-2-[[(2S)-3-(difluoromethoxy)-2-[[(2S)-3-(difluoromethoxy)-2-[(2-morpholinoacetyl)-amino]propanoyl]amino]propanoyl]amino]-N-[(1S)-3-methyl-1-[(2R)-2-methyloxirane-2-carbonyl]butyl]-3-phenyl-propanamide] | 30 | 28 | 100 | −7.66 | −5.48 | −7.21
CC(C)C[C@H](NC(=O)[C@H](COC(F)F)NC(=O)[C@H](COC(F)F)NC(=O)[C@H](COC(F)F)NC(=O)CN1CCOCC1)C(=O)[C@@]1(C)CO1 [Example 17, (2S)-3-(difluoromethoxy)-N-[(1S)-1-(difluoromethoxymethyl)-2-[[(1S)-1-(difluoro-methoxymethyl)-2-[[(1S)-3-methyl-1-[(2R)-2-methyloxirane-2-carbonyl]butyl]amino]-2-oxo-ethyl]amino]-2-oxo-ethyl]-2-[(2-mor-pholinoacetyl)amino]-propanamide] | 25 | 23 | 100 | −7.38 | – | −6.67
